Test results as given in patent US8497240B2 (priority 2006, dated 2013).
Read-outs that look alike come from different tables or passages of the source.

Assays:
[1] = type: in vivo, NIH/Swiss mice; conditions: 80 nmol/kg, AUC240
Experimental: (§1) In FIG. 3A, bars represent mean±sd, n=6-10. […] Gavage (1.5 g/kg) was given at t=0, Sample was taken at t=30 min. […] In FIG. 3B, points represent mean±sem, n=8-15.
Points represent mean±sem.

human GIP receptor = molecular target: T1, human GIP receptor (Homo sapiens, UniProt P48546); experiment: biochemical; type: binding
T1 construct: expressed in transfected cells; host or cells: HEK293 (HEK-GIPR), membranes
T1 sequence (P48546 22-466): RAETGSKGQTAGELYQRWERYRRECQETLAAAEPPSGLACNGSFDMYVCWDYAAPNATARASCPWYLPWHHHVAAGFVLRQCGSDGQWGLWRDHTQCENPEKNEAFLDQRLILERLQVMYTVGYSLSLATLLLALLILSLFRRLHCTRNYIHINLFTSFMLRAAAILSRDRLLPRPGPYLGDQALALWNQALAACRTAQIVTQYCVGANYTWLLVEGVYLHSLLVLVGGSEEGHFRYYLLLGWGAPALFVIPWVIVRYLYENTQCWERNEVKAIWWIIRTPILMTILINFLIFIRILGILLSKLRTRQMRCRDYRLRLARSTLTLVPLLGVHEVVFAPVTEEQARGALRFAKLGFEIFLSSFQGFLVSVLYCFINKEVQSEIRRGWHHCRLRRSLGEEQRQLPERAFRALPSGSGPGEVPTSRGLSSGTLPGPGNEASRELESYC

[2] = type: in vivo, NIH/Swiss mice; conditions: 30 nmol/kg
Experimental: as §1
Peptide was injected IP at t=−5 minutes into 4-hour fasted NIH/Swiss female mice. […] In FIG. 17 points represent mean+/−sem. […] Samples were taken at t=60, t=120 and t=180.

[3] = IVGTT duration of action assay (single SC injection before glucose); type: in vivo, rat; conditions: compared with 0601GIP3794 (794), dosed at −120 min
Experimental: To determine a duration of action using the IVGTT assay, the sample was injected SC as a single injection at one time point indicated (e.g., t=−240, −120, −60 or −30) prior to administration of glucose. IV glucose was given at t=0.

[4] = read-out: GIP RBA (% Inh 10 nM)
[5] = read-out: (% Inh 10 nm, GIP-LF Assay)

With CC[C@H](C)[C@H](NC(=O)[C@H](CO)NC(=O)[C@H](Cc1ccc(O)cc1)NC(=O)[C@H](CC(=O)O)NC(=O)[C@H](CO)NC(=O)[C@@H](NC(=O)[C@H](Cc1ccccc1)NC(=O)[C@@H](NC(=O)CNC(=O)[C@H](CCC(=O)O)NC(=O)[C@@H](C)NC(=O)[C@@H](N)Cc1ccc(O)cc1)[C@@H](C)O)[C@@H](C)CC)C(=O)N[C@@H](C)C(=O)N[C@@H](CC(C)C)C(=O)N[C@@H](CC(=O)O)C(=O)N[C@@H](CCCCN)C(=O)N[C@H](C(=O)N[C@@H](CCCNC(=N)N)C(=O)N[C@@H](CCC(N)=O)C(=O)N[C@@H](CCC(N)=O)C(=O)N[C@@H](CCC(=O)O)C(=O)N[C@@H](Cc1ccccc1)C(=O)N[C@H](C(=O)N[C@@H](CC(N)=O)C(=O)N[C@@H](Cc1c[nH]c2ccccc12)C(=O)N[C@@H](CC(C)C)C(=O)N[C@@H](CC(C)C)C(=O)N[C@@H](C)C(=O)N[C@@H](CCC(N)=O)C(=O)N[C@@H](CCCCN)C(=O)N1CCC[C@H]1C(=O)N[C@@H](CCCCN)C(=O)N[C@@H](CCCCN)C(=O)N[C@H](C(=O)N[C@@H](CCCNC(=N)N)C(=O)N[C@@H](Cc1ccc(O)cc1)C(=O)N[C@@H](CO)C(N)=O)[C@@H](C)CC)C(C)C)[C@@H](C)CC [0601GIP4539] the “Basal Glucose Lowering at Peptide Conc. of 80 nmol/kg” value (“Basal Glucose Lowering” for short) [1] was −5%, AUC240, the inhibition at 0.01 µM (human GIP receptor; [4]) was 98.7% and the “OGTT/GL (%)” value [2] was −12, 30%.

For CC[C@H](C)[C@H](NC(=O)[C@H](CO)NC(=O)[C@H](Cc1ccc(O)cc1)NC(=O)[C@H](CC(=O)O)NC(=O)[C@H](CO)NC(=O)[C@@H](NC(=O)[C@H](Cc1ccccc1)NC(=O)[C@@H](NC(=O)CNC(=O)[C@H](CCC(=O)O)NC(=O)[C@@H](C)NC(=O)[C@@H](N)Cc1ccc(O)cc1)[C@@H](C)O)[C@@H](C)CC)C(=O)N[C@@H](C)C(=O)N[C@@H](CCSC)C(=O)N[C@@H](CC(=O)O)C(=O)N[C@@H](CCCCN)C(=O)N[C@H](C(=O)N[C@@H](Cc1c[nH]cn1)C(=O)N[C@@H](CCC(N)=O)C(=O)N[C@@H](CCC(N)=O)C(=O)N[C@@H](CC(=O)O)C(=O)N[C@@H](Cc1ccccc1)C(=O)N[C@H](C(=O)N[C@@H](CC(N)=O)C(=O)N[C@@H](Cc1c[nH]c2ccccc12)C(=O)N[C@@H](CC(C)C)C(=O)N[C@@H](CC(C)C)C(=O)N[C@@H](C)C(=O)N[C@@H](CCC(N)=O)C(=O)N[C@@H](CCCCN)C(=O)N1CCC[C@H]1C(=O)N[C@@H](C)C(=O)N[C@@H](CCCCN)C(=O)N[C@H](C(=O)N[C@@H](CCCNC(=N)N)C(=O)N[C@@H](Cc1ccc(O)cc1)C(=O)N[C@@H](CO)C(N)=O)[C@@H](C)CC)C(C)C)[C@@H](C)CC [Compound 0601GIP4815], the “Duration In The Rat IVGTT Assay” value [3] was <794@ −120 min, the inhibition at 0.01 µM (human GIP receptor; [5]) was 89% and the inhibition at 0.01 µM (human GIP receptor; [4]) was 89%. The “OGTT/GL (%)” value [2] was −23, %.

For CC[C@H](C)[C@H](NC(=O)[C@H](CO)NC(=O)[C@H](Cc1ccc(O)cc1)NC(=O)[C@H](CC(=O)O)NC(=O)[C@H](CO)NC(=O)[C@@H](NC(=O)[C@H](Cc1ccccc1)NC(=O)[C@@H](NC(=O)CNC(=O)[C@H](CCC(=O)O)NC(=O)[C@@H](C)NC(=O)[C@@H](N)Cc1ccc(O)cc1)[C@@H](C)O)[C@@H](C)CC)C(=O)N[C@@H](C)C(=O)N[C@@H](CCSC)C(=O)N[C@@H](CC(=O)O)C(=O)N[C@@H](CCCCN)C(=O)N[C@H](C(=O)N[C@@H](Cc1c[nH]cn1)C(=O)N[C@@H](CCC(N)=O)C(=O)N[C@@H](CCC(N)=O)C(=O)N[C@@H](CC(=O)O)C(=O)N[C@@H](Cc1ccccc1)C(=O)N[C@H](C(=O)N[C@@H](CC(N)=O)C(=O)N[C@@H](Cc1c[nH]c2ccccc12)C(=O)N[C@@H](CC(C)C)C(=O)N[C@@H](CC(C)C)C(=O)N[C@@H](C)C(=O)N[C@@H](CCC(N)=O)C(=O)N[C@@H](CCCCN)C(=O)N1CCC[C@H]1C(=O)N[C@@H](CCCCN)C(=O)N[C@@H](CCCCN)C(=O)N[C@@H](CC(C)C)C(=O)N[C@@H](CCCCN)C(=O)N1CCC[C@H]1C(=O)N[C@@H](CO)C(N)=O)C(C)C)[C@@H](C)CC [Compound 0601GIP4822], the “Duration In The Rat IVGTT Assay” value [3] was <794@ −120 min, the inhibition at 0.01 µM (human GIP receptor; [5]) was 95.4% and the inhibition at 0.01 µM (human GIP receptor; [4]) was 95.4%. The “OGTT/GL (%)” value [2] was −23, %.

With CC[C@H](C)[C@H](NC(=O)[C@H](CO)NC(=O)[C@H](Cc1ccc(O)cc1)NC(=O)[C@H](CC(=O)O)NC(=O)[C@H](CO)NC(=O)[C@@H](NC(=O)[C@H](Cc1ccccc1)NC(=O)[C@@H](NC(=O)CNC(=O)[C@H](CCC(=O)O)NC(=O)[C@@H](C)NC(=O)[C@@H](N)Cc1ccc(O)cc1)[C@@H](C)O)[C@@H](C)CC)C(=O)N[C@@H](C)C(=O)N[C@@H](CCSC)C(=O)N[C@@H](CC(=O)O)C(=O)N[C@@H](CCCCN)C(=O)N[C@H](C(=O)N[C@@H](Cc1c[nH]cn1)C(=O)N[C@@H](CCC(N)=O)C(=O)N[C@@H](CCC(N)=O)C(=O)N[C@@H](CC(=O)O)C(=O)N[C@@H](Cc1ccccc1)C(=O)N[C@H](C(=O)N[C@@H](CC(N)=O)C(=O)N[C@@H](Cc1c[nH]c2ccccc12)C(=O)N[C@@H](CC(C)C)C(=O)N[C@@H](CC(C)C)C(=O)N[C@@H](C)C(=O)N[C@@H](CCC(N)=O)C(=O)N[C@@H](CCCCN)C(=O)NCCC(=O)NCCC(=O)N1CCC[C@H]1C(=O)N[C@@H](CCCCN)C(=O)N[C@@H](CCCCN)C(=O)N[C@H](C(=O)N[C@@H](CCCNC(=N)N)C(=O)N[C@@H](Cc1ccc(O)cc1)C(=O)N[C@@H](CO)C(N)=O)[C@@H](C)CC)C(C)C)[C@@H](C)CC [0601GIP4648] the “Basal Glucose Lowering” value [1] was −8%, AUC240, the inhibition at 0.01 µM (human GIP receptor; [4]) was 85.1% and the “OGTT/GL (%)” value [2] was −20, 30%.

With CC[C@H](C)[C@H](NC(=O)[C@H](CCCCN)NC(=O)[C@H](CC(=O)O)NC(=O)[C@H](CC(C)C)NC(=O)[C@H](C)NC(=O)[C@@H](NC(=O)[C@H](CO)NC(=O)[C@H](Cc1ccc(O)cc1)NC(=O)[C@H](CC(=O)O)NC(=O)[C@H](CO)NC(=O)[C@@H](NC(=O)[C@H](Cc1ccccc1)NC(=O)[C@@H](NC(=O)CNC(=O)[C@H](CCC(=O)O)NC(=O)[C@H](C)NC(=O)[C@H](Cc1ccc(O)cc1)NC(=O)[C@@H](N)CC(C)C)[C@@H](C)O)[C@@H](C)CC)[C@@H](C)CC)C(=O)N[C@@H](C)C(=O)N[C@@H](CCC(N)=O)C(=O)N[C@@H](CCC(N)=O)C(=O)N[C@@H](CCC(=O)O)C(=O)N[C@@H](Cc1ccccc1)C(=O)N[C@H](C(=O)N[C@@H](CC(N)=O)C(=O)N[C@@H](Cc1c[nH]c2ccccc12)C(=O)N[C@@H](CC(C)C)C(=O)N[C@@H](CC(C)C)C(=O)N[C@@H](C)C(=O)N[C@@H](CCC(N)=O)C(=O)N[C@@H](CCCCN)C(=O)N1CCC[C@H]1C(=O)N[C@@H](CCCCN)C(=O)N[C@@H](CCCCN)C(=O)N[C@H](C(=O)N[C@@H](CCCNC(=N)N)C(=O)N[C@@H](Cc1ccc(O)cc1)C(=O)N[C@@H](CO)C(N)=O)[C@@H](C)CC)C(C)C [0601GIP4803] the inhibition at 0.01 µM (human GIP receptor; [5]) was 89.9%, the inhibition at 0.01 µM (human GIP receptor; [4]) was 89.9% and the “OGTT/GL (%)” value [2] was −16, %.

With CC[C@H](C)[C@H](NC(=O)[C@H](CO)NC(=O)[C@H](Cc1ccc(O)cc1)NC(=O)[C@H](CC(=O)O)NC(=O)[C@H](CO)NC(=O)[C@@H](NC(=O)[C@H](Cc1ccccc1)NC(=O)[C@@H](NC(=O)CNC(=O)[C@H](CCC(=O)O)NC(=O)[C@H](CO)NC(=O)[C@@H](N)Cc1ccc(O)cc1)[C@@H](C)O)[C@@H](C)CC)C(=O)N[C@@H](C)C(=O)N[C@@H](CCSC)C(=O)N[C@@H](CC(=O)O)C(=O)N[C@@H](CCCCN)C(=O)N[C@H](C(=O)N[C@@H](Cc1c[nH]cn1)C(=O)N[C@@H](CCC(N)=O)C(=O)N[C@@H](CCC(N)=O)C(=O)N[C@@H](CC(=O)O)C(=O)N[C@@H](Cc1ccccc1)C(=O)N[C@H](C(=O)N[C@@H](CC(N)=O)C(=O)N[C@@H](Cc1c[nH]c2ccccc12)C(=O)N[C@@H](CC(C)C)C(=O)N[C@@H](CC(C)C)C(=O)N[C@@H](C)C(=O)N[C@@H](CCC(N)=O)C(=O)N[C@@H](CCCCN)C(=O)N1CCC[C@H]1C(=O)N[C@@H](CCCCN)C(=O)N[C@@H](CCCCN)C(=O)N[C@H](C(=O)N[C@@H](CCCNC(=N)N)C(=O)N[C@@H](Cc1ccc(O)cc1)C(=O)N[C@@H](CO)C(N)=O)[C@@H](C)CC)C(C)C)[C@@H](C)CC [0601GIP4538] the inhibition at 0.01 µM (human GIP receptor; [4]) was 94.2% and the “OGTT/GL (%)” value [2] was −9, 30%.

For CC[C@H](C)[C@H](NC(=O)[C@H](CO)NC(=O)[C@H](Cc1ccc(O)cc1)NC(=O)[C@H](CC(=O)O)NC(=O)[C@H](CO)NC(=O)[C@@H](NC(=O)[C@H](Cc1ccccc1)NC(=O)[C@@H](NC(=O)CNC(=O)[C@H](CCC(=O)O)NC(=O)[C@@H](C)NC(=O)[C@@H](N)Cc1ccc(O)cc1)[C@@H](C)O)[C@@H](C)CC)C(=O)N[C@@H](C)C(=O)N[C@@H](CCSC)C(=O)N[C@@H](CC(=O)O)C(=O)N[C@@H](CCCCN)C(=O)N[C@H](C(=O)N[C@@H](Cc1c[nH]cn1)C(=O)N[C@@H](CCC(N)=O)C(=O)N[C@@H](CCC(N)=O)C(=O)N[C@@H](CC(=O)O)C(=O)N[C@@H](Cc1ccccc1)C(=O)N[C@H](C(=O)N[C@@H](CC(N)=O)C(=O)N[C@@H](Cc1c[nH]c2ccccc12)C(=O)N[C@@H](CC(C)C)C(=O)N[C@@H](CC(C)C)C(=O)N[C@@H](C)C(=O)N[C@@H](CCC(N)=O)C(=O)N[C@@H](CCCCN)C(=O)N1CCC[C@H]1C(=O)N[C@@H](CCCCN)C(=O)NCC(=O)N[C@@H](CCCCN)C(=O)NCC(=O)N[C@@H](CCCCN)C(=O)N[C@@H](CO)C(N)=O)C(C)C)[C@@H](C)CC [0601GIP4700], the “Basal Glucose Lowering” value [1] was −6%, AUC240, the inhibition at 0.01 µM (human GIP receptor; [4]) was 86.6% and the “OGTT/GL (%)” value [2] was −21, 30%.
